Data as given in ChEMBL document CHEMBL1132351, “Synthesis, in vitro pharmacology, and molecular modeling of very potent tacrine-huperzine A hybrids as acetylcholinesterase inhibitors of potential interest for the treatment of Alzheimer's disease” (J Med Chem, 1999).
Values joined by “and” are separate entries in the source; they are usually repeats but may differ in a detail not shown here. Equal values may be shown once.

Key:
[1] = target: Cholinesterase (Homo sapiens, UniProt P06276)
Description: Inhibition of butyrylcholinesterase (BChE) activity in human serum

[2] = Drug concentration that reaches 50% of antagonism index (AI); No reversion at 10 uM concentration; type: functional
[3] = Drug concentration that reaches 50% of antagonism index (AI); No reversion at 10 uM concentration.; type: functional
[4] = target: T1, Acetylcholinesterase (Bos taurus, UniProt P23795)
T1 sequence (P23795 whole entry): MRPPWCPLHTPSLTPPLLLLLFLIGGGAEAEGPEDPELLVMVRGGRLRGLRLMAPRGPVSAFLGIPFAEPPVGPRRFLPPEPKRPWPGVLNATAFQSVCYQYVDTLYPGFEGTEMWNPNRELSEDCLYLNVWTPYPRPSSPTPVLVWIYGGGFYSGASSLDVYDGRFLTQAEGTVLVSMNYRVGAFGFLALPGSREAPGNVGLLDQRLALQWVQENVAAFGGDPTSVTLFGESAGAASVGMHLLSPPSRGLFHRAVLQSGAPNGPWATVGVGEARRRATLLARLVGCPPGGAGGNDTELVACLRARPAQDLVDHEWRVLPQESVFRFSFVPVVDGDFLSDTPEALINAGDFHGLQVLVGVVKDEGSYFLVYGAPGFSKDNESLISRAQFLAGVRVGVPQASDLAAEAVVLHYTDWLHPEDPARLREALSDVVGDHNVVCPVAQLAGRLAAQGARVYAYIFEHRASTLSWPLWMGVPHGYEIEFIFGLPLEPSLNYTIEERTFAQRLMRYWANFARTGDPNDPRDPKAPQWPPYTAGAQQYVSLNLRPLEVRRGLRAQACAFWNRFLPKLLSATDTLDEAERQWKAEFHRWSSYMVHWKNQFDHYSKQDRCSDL
Description: Inhibition of acetylcholinesterase (AChE)activity in bovine erythrocytes

Cholinesterase, sequence (P06276 whole entry): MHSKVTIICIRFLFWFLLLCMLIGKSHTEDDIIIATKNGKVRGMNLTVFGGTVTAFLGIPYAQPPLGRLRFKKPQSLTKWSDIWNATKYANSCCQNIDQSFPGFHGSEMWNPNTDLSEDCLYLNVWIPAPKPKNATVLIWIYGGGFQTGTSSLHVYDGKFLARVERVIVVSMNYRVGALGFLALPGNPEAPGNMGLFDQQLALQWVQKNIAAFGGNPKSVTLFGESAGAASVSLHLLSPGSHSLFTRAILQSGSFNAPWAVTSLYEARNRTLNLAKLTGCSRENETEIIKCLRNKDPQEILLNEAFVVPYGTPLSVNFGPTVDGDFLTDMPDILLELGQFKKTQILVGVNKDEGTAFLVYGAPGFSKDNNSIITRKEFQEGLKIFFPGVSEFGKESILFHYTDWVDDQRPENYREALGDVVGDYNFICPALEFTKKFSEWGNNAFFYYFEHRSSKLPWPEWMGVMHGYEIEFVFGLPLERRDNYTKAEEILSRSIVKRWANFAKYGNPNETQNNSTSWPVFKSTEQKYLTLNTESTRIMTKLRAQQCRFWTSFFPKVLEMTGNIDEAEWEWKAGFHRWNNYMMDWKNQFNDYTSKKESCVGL

Compound | IC50 [1] | AI50 [2] | AI50 [3] | IC50 [4] [nM]
CCC1=CC2Cc3nc4cc(C)ccc4c(N)c3C(C1)C2 (centres undefined) [listing 1 of 2 here] | 115 nM and 347 nM |  |  | 
CCC1=CC2Cc3nc4cc(C)ccc4c(N)c3C(C1)C2 (centres undefined) [listing 2 of 2 here] |  | No reversion |  | 
Nc1c2c(nc3ccccc13)CC1C=C(c3ccccc3)CC2C1 (racemic) |  |  | No reversion | 126
CC1=CC2Cc3nc4cccc(F)c4c(N)c3C(C1)C2 (racemic) | 543 nM |  |  | 31.4
CC1=CC2Cc3nc4cc(C)ccc4c(N)c3C(C1)C2 (racemic) | 449 nM |  |  | 
CCC1=CC2Cc3nc4cccc(C)c4c(N)c3C(C1)C2 (racemic) | 512 nM |  |  | 29.8
CC1=CC2Cc3nc4ccccc4c(N)c3C(C1)C2 (racemic) | 126 nM |  |  | 65
CCC1=CC2Cc3nc4cc(C)ccc4c(N)c3C(C1)C2 (racemic) | 208 nM |  |  | 12
CC(C)C1=CC2Cc3nc4ccccc4c(N)c3C(C1)C2 (racemic) |  |  |  | 103
CC(C)(C)C1=CC2Cc3nc4ccccc4c(N)c3C(C1)C2 (racemic) |  |  |  | 267
C=CCC1=CC2Cc3nc4ccccc4c(N)c3C(C1)C2 (racemic) |  |  | No reversion at 10 uM concentration | 150
CCC1=CC2Cc3nc4ccccc4c(N)c3C(C1)C2 (racemic) | 79.3 nM |  |  | 38.5
CC1=C[C@@H]2Cc3nc4cc(F)ccc4c(N)c3[C@H](C1)C2 (racemic) | 197 nM |  |  | 8.5
CC1=CC2Cc3nc4ccccc4c(N)c3C(C1)C2 (single isomer, unassigned; (+)) | 316 nM |  |  | 329
CCC1=CC2Cc3nc4ccccc4c(N)c3C(C1)C2 (single isomer, unassigned; (+)) | 109 nM |  |  | 888
CC1=CC2Cc3nc4ccccc4c(N)c3C(C1)C2 (single isomer, unassigned; (-)) | 89 nM |  |  | 
CCC1=CC2Cc3nc4ccccc4c(N)c3C(C1)C2 (single isomer, unassigned; (-)) | 63.3 nM |  |  | 27.4
C/C=C1\[C@H]2C=C(C)C[C@]1(N)c1ccc(=O)[nH]c1C2 [HUPERZINE A] | > 100000 nM |  |  | 
